How the values were obtained:
[1] = biological target: Glutamate receptor ionotropic, NMDA 1 (Rattus norvegicus, UniProt P35439)
[2] = biological target: Sodium-dependent noradrenaline transporter (Homo sapiens, UniProt P23975)
[3] = biological target: GLRA1 protein (Homo sapiens, UniProt Q14C71)
[4] = biological target: Sodium-dependent dopamine transporter (Homo sapiens, UniProt Q01959)
[5] = biological target: Adenylate cyclase type 9 (Homo sapiens, UniProt O60503)
[6] = biological target: Substance-P receptor (Homo sapiens, UniProt P25103)
[7] = biological target: D(1A) dopamine receptor (Homo sapiens, UniProt P21728)
Chain of D(1A) dopamine receptor (P21728 whole entry): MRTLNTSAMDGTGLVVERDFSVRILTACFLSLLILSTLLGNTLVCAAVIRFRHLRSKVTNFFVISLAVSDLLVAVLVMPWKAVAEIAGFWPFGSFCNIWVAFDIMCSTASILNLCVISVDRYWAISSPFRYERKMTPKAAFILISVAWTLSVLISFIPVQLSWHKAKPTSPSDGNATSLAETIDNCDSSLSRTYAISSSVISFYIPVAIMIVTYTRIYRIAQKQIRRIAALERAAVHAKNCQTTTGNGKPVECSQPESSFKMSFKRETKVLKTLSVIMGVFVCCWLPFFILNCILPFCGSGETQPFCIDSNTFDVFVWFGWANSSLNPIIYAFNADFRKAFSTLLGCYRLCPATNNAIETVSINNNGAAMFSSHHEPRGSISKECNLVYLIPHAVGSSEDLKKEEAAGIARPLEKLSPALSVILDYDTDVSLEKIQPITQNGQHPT

[8] = biological target: Adrenergic alpha2 receptor (Mesocricetus auratus, UniProt Q60533)
Chain of Adrenergic alpha2 receptor (Q60533 whole entry): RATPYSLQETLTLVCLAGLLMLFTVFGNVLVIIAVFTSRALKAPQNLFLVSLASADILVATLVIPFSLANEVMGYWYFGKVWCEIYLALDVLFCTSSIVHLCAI

[9] = biological target: Glutamate receptor ionotropic, kainate 2 (Homo sapiens, UniProt Q13002)
[10] = biological target: Adenosine receptor A2a (Homo sapiens, UniProt P29274)
[11] = biological target: Type-2 angiotensin II receptor (Homo sapiens, UniProt P50052)
[12] = biological target: Gamma-aminobutyric acid type B receptor subunit 1 (Homo sapiens, UniProt Q9UBS5)
[13] = biological target: Protein kinase C (Drosophila melanogaster, UniProt P13678)
[14] = biological target: Adenosine receptor A1 (Homo sapiens, UniProt P30542)
[15] = biological target: Apamin (Apis mellifera, UniProt P01500)
[16] = biological target: Glutamate receptor 3 (Homo sapiens, UniProt P42263)
[17] = biological target: 5-hydroxytryptamine receptor 1A/1B/1D/2C (Homo sapiens, UniProt P08908+P28221+P28222+P28335)
Chain of 5-hydroxytryptamine receptor 1A/1B/1D/2C (P08908 whole entry): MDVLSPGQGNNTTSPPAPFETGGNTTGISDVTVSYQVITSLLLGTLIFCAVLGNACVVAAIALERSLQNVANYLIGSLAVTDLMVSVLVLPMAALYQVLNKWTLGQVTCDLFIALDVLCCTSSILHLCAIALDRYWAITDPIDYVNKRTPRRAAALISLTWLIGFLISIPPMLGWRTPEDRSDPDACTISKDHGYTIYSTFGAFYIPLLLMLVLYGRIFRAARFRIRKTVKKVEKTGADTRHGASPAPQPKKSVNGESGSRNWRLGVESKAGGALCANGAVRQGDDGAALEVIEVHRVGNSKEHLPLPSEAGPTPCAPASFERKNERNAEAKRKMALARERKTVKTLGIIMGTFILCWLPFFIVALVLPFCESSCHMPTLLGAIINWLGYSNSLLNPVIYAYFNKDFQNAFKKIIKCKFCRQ
Chain of 5-hydroxytryptamine receptor 1A/1B/1D/2C (P28222 whole entry): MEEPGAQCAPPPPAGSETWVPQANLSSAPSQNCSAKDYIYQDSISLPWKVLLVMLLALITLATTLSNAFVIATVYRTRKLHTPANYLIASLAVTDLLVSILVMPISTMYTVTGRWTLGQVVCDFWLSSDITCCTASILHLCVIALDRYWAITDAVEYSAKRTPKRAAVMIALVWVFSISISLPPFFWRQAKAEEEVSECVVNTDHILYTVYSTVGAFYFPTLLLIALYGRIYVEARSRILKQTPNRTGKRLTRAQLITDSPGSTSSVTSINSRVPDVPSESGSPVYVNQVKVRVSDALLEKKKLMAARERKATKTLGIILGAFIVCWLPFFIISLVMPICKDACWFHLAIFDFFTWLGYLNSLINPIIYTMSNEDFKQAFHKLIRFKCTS
Chain of 5-hydroxytryptamine receptor 1A/1B/1D/2C (P28221 whole entry): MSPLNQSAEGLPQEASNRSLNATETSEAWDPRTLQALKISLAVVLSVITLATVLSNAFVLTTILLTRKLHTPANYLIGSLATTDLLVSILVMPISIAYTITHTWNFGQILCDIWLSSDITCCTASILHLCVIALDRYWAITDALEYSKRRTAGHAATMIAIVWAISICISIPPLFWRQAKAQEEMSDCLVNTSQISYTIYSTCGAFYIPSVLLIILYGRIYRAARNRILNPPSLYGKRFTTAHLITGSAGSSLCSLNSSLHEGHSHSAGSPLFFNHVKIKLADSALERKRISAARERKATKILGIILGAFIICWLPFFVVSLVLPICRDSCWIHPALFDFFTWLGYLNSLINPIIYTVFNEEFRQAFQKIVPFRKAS
Chain of 5-hydroxytryptamine receptor 1A/1B/1D/2C (P28335 whole entry): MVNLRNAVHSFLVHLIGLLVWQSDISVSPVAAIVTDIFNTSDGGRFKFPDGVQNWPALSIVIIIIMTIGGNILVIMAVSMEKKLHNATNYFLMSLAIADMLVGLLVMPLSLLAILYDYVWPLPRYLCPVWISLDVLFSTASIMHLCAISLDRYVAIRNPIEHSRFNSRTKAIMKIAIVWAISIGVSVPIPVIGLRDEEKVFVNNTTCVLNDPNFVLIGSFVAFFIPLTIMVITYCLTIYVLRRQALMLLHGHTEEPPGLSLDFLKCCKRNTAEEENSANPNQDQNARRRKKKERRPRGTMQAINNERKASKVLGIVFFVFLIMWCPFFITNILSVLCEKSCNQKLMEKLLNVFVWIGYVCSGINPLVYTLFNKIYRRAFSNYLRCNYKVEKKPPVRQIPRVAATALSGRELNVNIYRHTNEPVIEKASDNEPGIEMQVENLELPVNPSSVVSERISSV

[18] = biological target: Substance-K receptor (Bos taurus, UniProt P05363)
[19] = biological target: Histamine H1 receptor (Homo sapiens, UniProt P35367)
[20] = biological target: 5-hydroxytryptamine receptor 2A (Sus scrofa, UniProt P50129)
Chain of 5-hydroxytryptamine receptor 2A (P50129 whole entry): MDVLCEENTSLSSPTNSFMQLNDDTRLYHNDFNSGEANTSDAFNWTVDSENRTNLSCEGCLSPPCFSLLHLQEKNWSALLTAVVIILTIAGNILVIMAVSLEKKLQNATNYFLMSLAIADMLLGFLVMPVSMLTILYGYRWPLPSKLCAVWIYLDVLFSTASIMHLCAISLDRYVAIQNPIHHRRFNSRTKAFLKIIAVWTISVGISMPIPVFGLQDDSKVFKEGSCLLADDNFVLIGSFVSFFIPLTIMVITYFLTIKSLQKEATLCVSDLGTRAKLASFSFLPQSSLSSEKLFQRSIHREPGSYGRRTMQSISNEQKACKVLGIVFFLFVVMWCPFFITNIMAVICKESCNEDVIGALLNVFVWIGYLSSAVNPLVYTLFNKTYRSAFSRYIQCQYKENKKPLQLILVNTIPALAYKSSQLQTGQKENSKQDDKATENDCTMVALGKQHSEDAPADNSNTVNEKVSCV

[21] = biological target: Beta-2 adrenergic receptor (Mus musculus, UniProt P18762)
[22] = biological target: Inositol-tetrakisphosphate 1-kinase (Homo sapiens, UniProt Q13572)
Chain of Inositol-tetrakisphosphate 1-kinase (Q13572 whole entry): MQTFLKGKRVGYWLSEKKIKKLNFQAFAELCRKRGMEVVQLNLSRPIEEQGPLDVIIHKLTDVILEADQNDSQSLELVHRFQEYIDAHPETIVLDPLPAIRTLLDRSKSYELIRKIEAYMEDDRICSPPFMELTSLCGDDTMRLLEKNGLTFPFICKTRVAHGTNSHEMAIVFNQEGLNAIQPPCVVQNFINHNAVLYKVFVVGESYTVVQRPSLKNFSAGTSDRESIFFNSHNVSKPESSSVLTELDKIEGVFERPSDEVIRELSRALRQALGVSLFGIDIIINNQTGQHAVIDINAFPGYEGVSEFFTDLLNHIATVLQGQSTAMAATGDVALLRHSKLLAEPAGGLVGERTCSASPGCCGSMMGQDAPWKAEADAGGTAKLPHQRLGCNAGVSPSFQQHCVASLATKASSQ

[23] = biological target: Chloride channel protein 1 (Homo sapiens, UniProt P35523)
[24] = biological target: D(2) dopamine receptor (Homo sapiens, UniProt P14416)
[25] = biological target: Voltage-dependent T-type calcium channel subunit alpha-1H (Homo sapiens, UniProt O95180)
[26] = biological target: VIP peptides (Homo sapiens, UniProt P01282)
Chain of VIP peptides (P01282 125-152 limits assumed): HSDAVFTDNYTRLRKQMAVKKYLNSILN

[27] = biological target: Voltage-dependent N-type calcium channel subunit alpha-1B (Rattus norvegicus, UniProt Q02294)
[28] = biological target: Solute carrier family 22 member 1 (Rattus norvegicus, UniProt Q63089)
Chain of Solute carrier family 22 member 1 (Q63089 whole entry): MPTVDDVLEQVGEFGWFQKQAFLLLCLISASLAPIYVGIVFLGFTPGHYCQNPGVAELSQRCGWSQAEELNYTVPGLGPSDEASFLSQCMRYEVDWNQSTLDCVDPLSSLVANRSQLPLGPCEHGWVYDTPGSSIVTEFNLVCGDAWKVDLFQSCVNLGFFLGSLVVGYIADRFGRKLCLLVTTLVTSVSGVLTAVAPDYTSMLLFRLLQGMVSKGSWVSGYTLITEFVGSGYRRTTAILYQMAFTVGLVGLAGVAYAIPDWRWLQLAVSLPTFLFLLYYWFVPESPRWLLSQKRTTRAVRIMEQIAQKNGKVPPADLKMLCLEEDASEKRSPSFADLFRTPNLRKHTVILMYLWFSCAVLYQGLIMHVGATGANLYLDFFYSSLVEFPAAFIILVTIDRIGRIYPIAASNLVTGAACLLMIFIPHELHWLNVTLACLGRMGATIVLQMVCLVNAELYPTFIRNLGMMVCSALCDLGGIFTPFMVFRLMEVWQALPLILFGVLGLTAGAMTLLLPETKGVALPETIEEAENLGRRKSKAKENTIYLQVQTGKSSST

[29] = biological target: Outer capsid protein sigma-1 (Reovirus type 3 (strain Dearing), UniProt P03528)
Chain of Outer capsid protein sigma-1 (P03528 whole entry): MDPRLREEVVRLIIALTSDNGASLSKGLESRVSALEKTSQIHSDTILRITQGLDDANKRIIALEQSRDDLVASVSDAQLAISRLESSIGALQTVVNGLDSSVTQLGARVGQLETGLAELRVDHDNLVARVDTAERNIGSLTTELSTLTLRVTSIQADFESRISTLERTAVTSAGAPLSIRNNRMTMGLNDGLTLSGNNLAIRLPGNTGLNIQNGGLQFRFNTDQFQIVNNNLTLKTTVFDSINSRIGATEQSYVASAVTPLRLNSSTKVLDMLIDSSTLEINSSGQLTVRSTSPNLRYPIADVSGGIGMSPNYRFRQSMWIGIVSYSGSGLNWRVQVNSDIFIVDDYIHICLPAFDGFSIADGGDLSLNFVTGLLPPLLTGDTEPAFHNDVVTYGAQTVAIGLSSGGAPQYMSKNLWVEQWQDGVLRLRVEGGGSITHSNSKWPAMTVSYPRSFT

[30] = biological target: 5-hydroxytryptamine receptor 3A (Homo sapiens, UniProt P46098)
[31] = biological target: Muscarinic acetylcholine receptor M1 (Mus musculus, UniProt P12657)
[32] = biological target: Gamma-aminobutyric acid receptor subunit alpha-1 (Homo sapiens, UniProt P14867)
[33] = biological target: Beta-nerve growth factor (Homo sapiens, UniProt P01138)
Chain of Beta-nerve growth factor (P01138 122-241 limits assumed): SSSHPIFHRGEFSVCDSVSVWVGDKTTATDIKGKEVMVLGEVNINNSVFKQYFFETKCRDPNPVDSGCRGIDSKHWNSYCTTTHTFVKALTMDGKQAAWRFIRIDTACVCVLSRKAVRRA

Measured: Ki

Chain of Sodium-dependent noradrenaline transporter (P23975 whole entry): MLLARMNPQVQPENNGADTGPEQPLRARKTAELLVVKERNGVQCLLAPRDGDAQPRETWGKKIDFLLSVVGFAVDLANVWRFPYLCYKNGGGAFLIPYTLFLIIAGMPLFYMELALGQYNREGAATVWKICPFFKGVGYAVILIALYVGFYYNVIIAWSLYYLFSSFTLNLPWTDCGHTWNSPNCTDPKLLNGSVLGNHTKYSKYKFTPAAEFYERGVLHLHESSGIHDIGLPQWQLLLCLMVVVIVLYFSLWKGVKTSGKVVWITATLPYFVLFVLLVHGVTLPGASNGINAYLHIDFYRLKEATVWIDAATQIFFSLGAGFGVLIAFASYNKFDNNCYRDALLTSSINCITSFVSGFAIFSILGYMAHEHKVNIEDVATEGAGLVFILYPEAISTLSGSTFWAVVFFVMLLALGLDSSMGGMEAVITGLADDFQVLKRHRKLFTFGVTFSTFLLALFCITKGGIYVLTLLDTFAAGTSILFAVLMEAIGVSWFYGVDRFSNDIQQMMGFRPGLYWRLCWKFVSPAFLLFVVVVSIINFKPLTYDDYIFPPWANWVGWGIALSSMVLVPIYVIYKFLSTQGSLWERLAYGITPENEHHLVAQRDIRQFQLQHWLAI

Cc1cc([C@@H]2CCCN2C)on1 [ABT-418]
> 10 µM: [1] | [2] | [3] | [4] | [5] | [6] | [7] | [8] | [9] | [10] | [11] | [12] | [13] | [14] | [15] | [16] | [17] | [18] | [19] | [20] | [21] | [22] | [23] | [24] | [25] | [26] | [27] | [28] | [29] | [30] | [31] | [32] | [33]
